Source: patent publication US20230407243A1, “GENETIC PLATFORM TO INVESTIGATE THE FUNCTIONS OF BACTERIAL DRUG EFFLUX PUMPS” (priority 2022, published 2023)
≈ marks a conversion by molar mass, not a printed value. Entries after “also recorded” stand apart in the source; their conditions may differ.

Legend:
Type in all cases: cell-based, Escherichia coli
[1] = tested on: EKO-35 strains with integrated RND tripartite efflux pumps (AcrB, AcrEF, AcrD, and MdtEF) with pGDP2:emrE or empty pGDP-2; assay: Efflux pump interplay MIC profiling (pGDP2:emrE); details: for MIC / Fold Change from EKO-35: Pore −
[2] = tested on: EKO-35-Pore strains with integrated AcrB, AcrEF, AcrD, MdtEF with pGDP2:emrE or empty pGDP-2; assay: Efflux pump interplay MIC profiling (pGDP2:emrE), porinated; details: for MIC / Fold Change from EKO-35: Pore +
Description: This plasmid enables single-copy genomic integration of a selected gene through integration into the nonessential araC gene within the arabinose operon (Cox, G. et al., 2022). All E. coli genes were amplified from E. coli BW25113 genomic DNA, and mexCD was amplified from P. aeruginosa PAO1, using a high-fidelity polymerase, followed by ligation into pINT2. Successful clones were verified using PCR (Primers: pLac-Fwd/pINT-Rev, Table 4) and confirmed via Sanger sequencing at The Centre for Applied Genomics (TCAG) (The Hospital for Sick Children) and the AAC (University of Guelph). For the interplay studies, this process was repeated using the pGDP2 plasmid (Cox, G. et al., 2022).
To enable comparison between efflux production in different genetic backgrounds, each efflux pump-encoding gene was also integrated into the genome of the wild-type BW25113 strain, the single gene deletion mutant from the Keio Collection, and EKO-35. Strains of interest were propagated on LB agar at 37° C. Cell inoculum was prepared using the colony resuspension method and applied to a 96-well well plate (VWR) in technical duplicate, and the minimum inhibitory concentrations were determined according to Clinical & Laboratory Standards Institute (CLSI) protocols in MHB II (Patel J. B. et al, 2015). The plates were incubated for 18 h (Multitron Shaker, Infors HT) at 37° C. with aeration at 900 rpm. The plates were equilibrated to room temperature before the OD600 nm was measured using a BioTek Synergy H1 microplate reader. For interplay profiling, blank subtracted OD600 nm values >0.1 were considered to represent growth.
To investigate, the EKO-35-Pore strains were profiled using the same approach.

[3] = tested on: EKO-35 porinated strain expressing acrD; assay: Checkerboard synergy (FICI), porinated strain; details: for interaction of PAβN in combination with the labelled antibiotic (FICI): acrD expressed in the porinated strain
Method in brief: (§1)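 Checkerboard broth microdilution in MHB II followed CLSI guidelines, with MIC defined as the lowest concentration giving no growth by OD600. FICI was calculated as CA/MICA + CB/MICB for PAβN or NMP combined with an antibiotic, with <0.5 classed as synergistic. Efflux-attributed fold resistance is the strain MIC divided by the EKO-35 MIC.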

[4] = tested on: EKO-35 porinated strain expressing acrF (AcrEF); assay: Checkerboard synergy (FICI), porinated strain
Method in brief: as §1

[5] = EKO-35 acrD Pore, PAβN + antibiotic
[6] = EKO-35 acrD Pore, antibiotic alone (PAβN checkerboard)
[7] = EKO-35 acrD Pore, antibiotic in combination with PAβN
[8] = EKO-35 acrD Pore, NMP + antibiotic
[9] = strain EKO-35 acrD Pore, NMP + antibiotic
[10] = EKO-35 acrEF Pore, PAβN + antibiotic
[11] = strain EKO-35 acrEF Pore, NMP + antibiotic

## CN(C)c1ccc(O)c2c1C[C@H]1C[C@H]3[C@H](N(C)C)C(O)=C(C(N)=O)C(=O)[C@@]3(O)C(O)=C1C2=O [minocycline]
[1]; strain EKO-35
  MIC: 1.25 µg/mL (≈ 2.73 µM)
[1]; strain EKO-35 pEmrE
  Fold Change from EKO-35: 1
  MIC: 1.25 µg/mL (≈ 2.73 µM)
[1]; strain acrB pEmrE
  Fold Change from EKO-35: 4
  MIC: 5 µg/mL (≈ 10.9 µM)
[1]; strain acrB
  Fold Change from EKO-35: 4
  MIC: 5 µg/mL (≈ 10.9 µM)
[1]; strain acrD pEmrE
  Fold Change from EKO-35: 2
  MIC: 2.5 µg/mL (≈ 5.46 µM)
[1]; strain acrD
  Fold Change from EKO-35: 2
  MIC: 2.5 µg/mL (≈ 5.46 µM)
[1]; strain acrEF pEmrE
  Fold Change from EKO-35: 4
  MIC: 5 µg/mL (≈ 10.9 µM)
[1]; strain acrEF
  Fold Change from EKO-35: 2
  MIC: 2.5 µg/mL (≈ 5.46 µM)
[1]; strain mdtEF pEmrE
  Fold Change from EKO-35: 2
  MIC: 2.5 µg/mL (≈ 5.46 µM)
[1]; strain mdtEF
  Fold Change from EKO-35: 2
  MIC: 2.5 µg/mL (≈ 5.46 µM)
[2]; strain EKO-35
  MIC: 0.63 µg/mL
[2]; strain EKO-35 pEmrE
  Fold Change from EKO-35: 1
  MIC: 0.63 µg/mL
[2]; strain acrB pEmrE
  Fold Change from EKO-35: 4
  MIC: 2.5 µg/mL
[2]; strain acrB
  Fold Change from EKO-35: 4
  MIC: 2.5 µg/mL
[2]; strain acrD pEmrE
  Fold Change from EKO-35: 2
[2]; strain acrD
  Fold Change from EKO-35: 2
[2]; strain acrEF pEmrE
  Fold Change from EKO-35: 2
[2]; strain acrEF
  Fold Change from EKO-35: 2
[2]; strain mdtEF pEmrE
  Fold Change from EKO-35: 2
[2]; strain mdtEF
  Fold Change from EKO-35: 2

## CO[C@@H]1[C@@H](OC(N)=O)[C@@H](O)[C@H](Oc2ccc3c(O)c(NC(=O)c4ccc(O)c(CC=C(C)C)c4)c(=O)oc3c2C)OC1(C)C [novobiocin]
[1]; EKO-35, AcrB, AcrEF, AcrD, MdtEF combined with pEmrE
  interplay of EmrE with tripartite efflux pumps on resistance: Interplay was not observed; also recorded: did not observe synergy
[1]; negative controls
  extrusion by EmrE: not extruded by EmrE
[1]; strain EKO-35
  MIC: 0.781 µg/mL (≈ 1.27 µM)
[1]; strain EKO-35 pEmrE
  Fold Change from EKO-35: 1
  MIC: 0.781 µg/mL (≈ 1.27 µM)
[1]; strain acrB pEmrE
  Fold Change from EKO-35: 512
  MIC: 400 µg/mL (≈ 653 µM)
[1]; strain acrB
  Fold Change from EKO-35: 512
  MIC: 400 µg/mL (≈ 653 µM)
[1]; strain acrD pEmrE
  Fold Change from EKO-35: 64
  MIC: 50 µg/mL (≈ 81.6 µM)
[1]; strain acrD
  Fold Change from EKO-35: 128
  MIC: 100 µg/mL (≈ 163 µM)
[1]; strain acrEF pEmrE
  Fold Change from EKO-35: 64
  MIC: 50 µg/mL (≈ 81.6 µM)
[1]; strain acrEF
  Fold Change from EKO-35: 128
  MIC: 100 µg/mL (≈ 163 µM)
[1]; strain mdtEF pEmrE
  Fold Change from EKO-35: 8
  MIC: 6.25 µg/mL (≈ 10.2 µM)
[1]; strain mdtEF
  Fold Change from EKO-35: 16
  MIC: 12.5 µg/mL (≈ 20.4 µM)
[3]; [5]
  Effect: Additive
  FICI: 0.563
[3]; [6]
  MICb Alone: 16 µg/mL
[3]; [7]
  MICb Combined: 1 µg/mL
[3]
  interaction of PAβN in combination with the labelled antibiotic (FICI): synergy was lost
[2]; EKO-35-Pore, AcrB, AcrEF, AcrD, MdtEF combined with pEmrE
  interplay of EmrE with tripartite efflux pumps on resistance: Interplay was not observed
[2]; strain EKO-35
  MIC: 0.391 µg/mL
[2]; strain EKO-35 pEmrE
  Fold Change from EKO-35: 1
  MIC: 0.391 µg/mL
[2]; strain acrB pEmrE
  Fold Change from EKO-35: 256
  MIC: 100 µg/mL
[2]; strain acrB
  Fold Change from EKO-35: 256
  MIC: 100 µg/mL
[2]; strain acrD pEmrE
  Fold Change from EKO-35: 16
[2]; strain acrD
  Fold Change from EKO-35: 64
  MIC: 25 µg/mL
[2]; strain acrEF pEmrE
  Fold Change from EKO-35: 32
[2]; strain acrEF
  Fold Change from EKO-35: 32
[2]; strain mdtEF pEmrE
  Fold Change from EKO-35: 4
  MIC: 1.56 µg/mL
[2]; strain mdtEF
  Fold Change from EKO-35: 8
  MIC: 3.13 µg/mL

## Cc1onc(-c2ccccc2)c1C(=O)N[C@@H]1C(=O)N2[C@@H]1SC(C)(C)[C@@H]2C(=O)O [oxacillin]
[3]; [8]
  Effect: Additive
  FICI: 0.750
[3]; [5]
  Effect: Synergistic
  FICI: 0.500
[3]; [6]
  MICb Alone: 4 µg/mL
[3]; [7]
  MICb Combined: 1 µg/mL
[3]
  interaction of PAβN in combination with the labelled antibiotic (FICI): still observed
[3]; [9]
  Effect: Additive (additive (FICI >0.5-1.0))
  FICI: 0.750
[3]; strain EKO-35 acrD Pore, antibiotic alone
  MICb Alone: 2 µg/mL
[3]; strain EKO-35 acrD Pore, antibiotic in combination with NMP
  MICb Combined: 0.5 µg/mL
[4]; EKO-35 acrEF Pore, NMP + antibiotic
  FICI: 1.000
[4]; [10]
  Effect: Synergistic
  FICI: 0.500
[4]; EKO-35 acrEF Pore, antibiotic alone (PAβN checkerboard)
  MICb Alone: 4 µg/mL
[4]; EKO-35 acrEF Pore, antibiotic in combination with PAβN
  MICb Combined: 1 µg/mL
[4]; [11]
  Effect: — (indifferent (FICI >1.0))
  FICI: 1.000
[4]; strain EKO-35 acrEF Pore, antibiotic alone
  MICb Alone: 2 µg/mL
[4]; strain EKO-35 acrEF Pore, antibiotic in combination with NMP
  MICb Combined: 1 µg/mL
